The source made the active and inactive calls. The rule behind the calls is not given here.
Key:
[1] = target: Serine/threonine-protein kinase Nek4 (Homo sapiens) (UniProt P51957); conditions: Compound concentration 1000.0 nM
[2] = target: Serine/threonine-protein kinase Nek9 (Homo sapiens) (UniProt Q8TD19); conditions: Compound concentration 1000.0 nM
[3] = test system: Epidermal growth factor receptor (Homo sapiens), P00533 [G719C]; conditions: Compound concentration 1000.0 nM
[4] = target: Ribosomal protein S6 kinase beta-1 (Homo sapiens) (UniProt P23443); conditions: Compound concentration 1000.0 nM
Sequence of Ribosomal protein S6 kinase beta-1 (Homo sapiens) (P23443 whole entry, looked up): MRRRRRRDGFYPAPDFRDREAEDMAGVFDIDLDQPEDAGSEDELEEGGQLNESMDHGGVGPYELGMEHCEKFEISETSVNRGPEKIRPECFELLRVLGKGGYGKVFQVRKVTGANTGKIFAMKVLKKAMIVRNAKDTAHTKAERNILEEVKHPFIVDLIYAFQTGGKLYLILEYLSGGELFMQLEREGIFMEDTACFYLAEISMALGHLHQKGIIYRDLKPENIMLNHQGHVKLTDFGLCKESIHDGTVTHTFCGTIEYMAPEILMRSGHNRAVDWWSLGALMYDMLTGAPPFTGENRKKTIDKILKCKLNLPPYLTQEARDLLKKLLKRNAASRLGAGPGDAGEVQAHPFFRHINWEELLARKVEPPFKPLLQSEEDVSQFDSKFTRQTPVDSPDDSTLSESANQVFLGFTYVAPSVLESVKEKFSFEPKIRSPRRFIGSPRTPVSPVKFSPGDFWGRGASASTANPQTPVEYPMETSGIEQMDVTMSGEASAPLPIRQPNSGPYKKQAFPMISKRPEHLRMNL

[5] = target: Tyrosine-protein kinase CSK (Homo sapiens) (UniProt P41240); conditions: Compound concentration 1000.0 nM
Sequence of Tyrosine-protein kinase CSK (Homo sapiens) (P41240 2-450 limits assumed): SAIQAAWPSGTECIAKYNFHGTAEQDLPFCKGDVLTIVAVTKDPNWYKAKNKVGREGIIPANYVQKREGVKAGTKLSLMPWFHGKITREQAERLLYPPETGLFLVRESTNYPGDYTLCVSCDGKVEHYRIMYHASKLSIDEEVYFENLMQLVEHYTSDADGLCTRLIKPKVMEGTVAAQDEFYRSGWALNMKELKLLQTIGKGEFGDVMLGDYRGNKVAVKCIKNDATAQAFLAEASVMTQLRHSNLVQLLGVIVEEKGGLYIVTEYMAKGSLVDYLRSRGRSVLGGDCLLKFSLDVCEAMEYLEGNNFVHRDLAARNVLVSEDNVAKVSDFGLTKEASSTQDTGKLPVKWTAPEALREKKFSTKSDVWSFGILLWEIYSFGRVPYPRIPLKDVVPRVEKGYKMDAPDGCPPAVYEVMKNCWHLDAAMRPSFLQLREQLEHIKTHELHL

[6] = target: Serine/threonine-protein kinase 36 (Homo sapiens) (UniProt Q9NRP7); conditions: Compound concentration 1000.0 nM
[7] = target: Serine/threonine-protein kinase Nek2 (Homo sapiens) (UniProt P51955); conditions: Compound concentration 1000.0 nM
Sequence of Serine/threonine-protein kinase Nek2 (Homo sapiens) (P51955 whole entry): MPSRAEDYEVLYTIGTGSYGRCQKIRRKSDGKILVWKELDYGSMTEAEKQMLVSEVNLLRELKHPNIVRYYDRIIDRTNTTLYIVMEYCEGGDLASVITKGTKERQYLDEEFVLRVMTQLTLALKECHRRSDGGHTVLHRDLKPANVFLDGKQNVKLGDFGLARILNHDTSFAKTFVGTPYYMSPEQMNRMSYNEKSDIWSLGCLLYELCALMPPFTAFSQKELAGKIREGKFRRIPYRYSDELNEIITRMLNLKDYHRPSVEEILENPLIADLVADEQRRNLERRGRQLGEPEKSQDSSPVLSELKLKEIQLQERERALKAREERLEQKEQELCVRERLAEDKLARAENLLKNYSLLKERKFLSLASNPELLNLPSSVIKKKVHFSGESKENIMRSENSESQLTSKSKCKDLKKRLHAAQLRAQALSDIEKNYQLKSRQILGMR

[8] = target: Serine/threonine-protein kinase BRSK2 (Homo sapiens) (UniProt Q8IWQ3); conditions: Compound concentration 1000.0 nM
[9] = target: Cyclin-dependent kinase 4 (Homo sapiens) (UniProt P11802); conditions: Compound concentration 1000.0 nM
[10] = target: Receptor-type tyrosine-protein kinase FLT3 (Homo sapiens, UniProt P36888); conditions: Compound concentration 1000.0 nM
[11] = target: Serine/threonine-protein kinase MRCK alpha (Homo sapiens) (UniProt Q5VT25); conditions: Compound concentration 1000.0 nM
[12] = target: RAC-beta serine/threonine-protein kinase (Homo sapiens) (UniProt P31751); conditions: Compound concentration 1000.0 nM
[13] = target: Phosphatidylinositol 4,5-bisphosphate 3-kinase catalytic subunit gamma isoform (Homo sapiens) (UniProt P48736); conditions: Compound concentration 1000.0 nM
[14] = target: Insulin-like growth factor 1 receptor (Homo sapiens) (UniProt P08069); conditions: Compound concentration 1000.0 nM
[15] = target: Tyrosine-protein kinase receptor TYRO3 (Homo sapiens) (UniProt Q06418); conditions: Compound concentration 1000.0 nM
[16] = target: Muscle, skeletal receptor tyrosine-protein kinase (Homo sapiens) (UniProt O15146); conditions: Compound concentration 1000.0 nM
[17] = target: NT-3 growth factor receptor (Homo sapiens) (UniProt Q16288); conditions: Compound concentration 1000.0 nM
[18] = target: Leucine-rich repeat serine/threonine-protein kinase 2 (Homo sapiens) (UniProt Q5S007); conditions: Compound concentration 1000.0 nM
[19] = target: Sigma non-opioid intracellular receptor 1 (Homo sapiens, UniProt Q99720); conditions: Compound concentration 10.0 uM
Sequence of Sigma non-opioid intracellular receptor 1 (Q99720 whole entry): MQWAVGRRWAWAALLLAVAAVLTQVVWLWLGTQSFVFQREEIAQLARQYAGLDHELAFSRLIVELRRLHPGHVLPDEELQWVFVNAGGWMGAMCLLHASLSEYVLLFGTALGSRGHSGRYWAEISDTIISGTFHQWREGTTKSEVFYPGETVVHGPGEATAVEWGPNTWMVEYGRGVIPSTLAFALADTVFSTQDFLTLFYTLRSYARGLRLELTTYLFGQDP

[20] = target: Mitogen-activated protein kinase kinase kinase 12 (Homo sapiens) (UniProt Q12852); conditions: Compound concentration 1000.0 nM
Sequence of Mitogen-activated protein kinase kinase kinase 12 (Homo sapiens) (Q12852 whole entry): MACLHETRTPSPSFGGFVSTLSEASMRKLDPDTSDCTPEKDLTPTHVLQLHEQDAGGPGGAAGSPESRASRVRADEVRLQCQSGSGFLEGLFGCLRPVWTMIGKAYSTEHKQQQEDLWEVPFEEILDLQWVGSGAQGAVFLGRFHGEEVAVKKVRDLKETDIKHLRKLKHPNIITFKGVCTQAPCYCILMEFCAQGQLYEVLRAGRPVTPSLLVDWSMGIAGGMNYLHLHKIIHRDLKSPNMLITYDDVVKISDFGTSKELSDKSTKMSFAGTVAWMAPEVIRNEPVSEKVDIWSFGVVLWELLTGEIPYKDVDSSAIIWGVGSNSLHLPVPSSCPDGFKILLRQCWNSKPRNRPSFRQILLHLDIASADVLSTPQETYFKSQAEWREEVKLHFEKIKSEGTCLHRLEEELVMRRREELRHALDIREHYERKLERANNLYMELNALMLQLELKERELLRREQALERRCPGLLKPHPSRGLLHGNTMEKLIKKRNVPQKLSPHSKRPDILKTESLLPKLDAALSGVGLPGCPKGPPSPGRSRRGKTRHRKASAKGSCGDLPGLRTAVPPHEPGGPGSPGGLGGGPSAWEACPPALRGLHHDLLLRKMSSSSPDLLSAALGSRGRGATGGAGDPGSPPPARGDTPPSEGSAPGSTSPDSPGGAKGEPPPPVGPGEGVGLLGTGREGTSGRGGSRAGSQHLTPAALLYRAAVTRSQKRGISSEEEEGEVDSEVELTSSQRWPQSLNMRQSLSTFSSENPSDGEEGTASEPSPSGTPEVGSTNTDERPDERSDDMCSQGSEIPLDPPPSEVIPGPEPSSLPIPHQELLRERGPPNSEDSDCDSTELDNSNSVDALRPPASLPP

[21] = target: Serine/threonine-protein kinase Sgk1 (Homo sapiens) (UniProt O00141); conditions: Compound concentration 1000.0 nM
Sequence of Serine/threonine-protein kinase Sgk1 (Homo sapiens) (O00141 whole entry): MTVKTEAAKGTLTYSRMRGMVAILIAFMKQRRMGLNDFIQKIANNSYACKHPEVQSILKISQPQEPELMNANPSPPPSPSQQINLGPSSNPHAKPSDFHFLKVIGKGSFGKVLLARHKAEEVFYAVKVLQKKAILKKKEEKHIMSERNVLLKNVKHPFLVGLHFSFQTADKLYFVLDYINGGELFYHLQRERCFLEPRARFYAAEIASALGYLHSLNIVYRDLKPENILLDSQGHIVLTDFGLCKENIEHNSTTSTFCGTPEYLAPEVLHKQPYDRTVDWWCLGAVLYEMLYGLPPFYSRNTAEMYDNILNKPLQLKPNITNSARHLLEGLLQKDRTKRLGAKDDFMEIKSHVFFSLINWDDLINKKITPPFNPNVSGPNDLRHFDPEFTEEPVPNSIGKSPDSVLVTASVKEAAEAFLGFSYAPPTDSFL

[22] = target: Ribosomal protein S6 kinase alpha-3 (Homo sapiens) (UniProt P51812); conditions: Compound concentration 1000.0 nM
Sequence of Ribosomal protein S6 kinase alpha-3 (Homo sapiens) (P51812 whole entry): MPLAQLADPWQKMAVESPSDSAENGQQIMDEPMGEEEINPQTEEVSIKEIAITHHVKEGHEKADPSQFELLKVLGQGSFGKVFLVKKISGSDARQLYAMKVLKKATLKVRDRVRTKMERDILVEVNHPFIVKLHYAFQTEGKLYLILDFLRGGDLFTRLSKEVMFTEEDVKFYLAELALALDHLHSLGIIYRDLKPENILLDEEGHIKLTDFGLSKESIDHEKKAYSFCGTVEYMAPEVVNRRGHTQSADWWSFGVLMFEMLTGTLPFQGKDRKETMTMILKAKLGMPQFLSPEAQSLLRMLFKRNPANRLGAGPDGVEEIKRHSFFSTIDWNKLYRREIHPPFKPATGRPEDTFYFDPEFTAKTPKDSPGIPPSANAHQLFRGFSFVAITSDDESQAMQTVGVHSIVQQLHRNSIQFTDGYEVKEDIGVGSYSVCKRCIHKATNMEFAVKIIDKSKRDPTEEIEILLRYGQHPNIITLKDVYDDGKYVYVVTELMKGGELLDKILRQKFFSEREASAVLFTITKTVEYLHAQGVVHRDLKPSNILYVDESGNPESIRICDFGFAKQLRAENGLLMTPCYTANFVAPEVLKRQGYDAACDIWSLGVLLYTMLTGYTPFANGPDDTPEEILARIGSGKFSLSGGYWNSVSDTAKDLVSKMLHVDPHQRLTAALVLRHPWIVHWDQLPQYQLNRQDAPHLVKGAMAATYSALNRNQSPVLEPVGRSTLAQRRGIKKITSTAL

[23] = target: Phosphatidylinositol 4-phosphate 5-kinase type-1 alpha (Homo sapiens) (UniProt Q99755); conditions: Compound concentration 1000.0 nM
[24] = test system: Epidermal growth factor receptor (Homo sapiens), P00533 [UNDEFINED MUTATION]; conditions: Compound concentration 1000.0 nM
[25] = target: Serine/threonine-protein kinase Nek3 (Homo sapiens) (UniProt P51956); conditions: Compound concentration 1000.0 nM
[26] = target: Serine/threonine-protein kinase DCLK1 (Homo sapiens) (UniProt O15075); conditions: Compound concentration 1000.0 nM
[27] = target: Calcium/calmodulin-dependent protein kinase kinase 2 (Homo sapiens) (UniProt Q96RR4); conditions: Compound concentration 1000.0 nM
[28] = target: Ribosomal protein S6 kinase alpha-1 (Homo sapiens) (UniProt Q15418); conditions: Compound concentration 1000.0 nM
[29] = target: Vascular endothelial growth factor receptor 2 (Homo sapiens) (UniProt P35968); conditions: Compound concentration 1000.0 nM
Sequence of Vascular endothelial growth factor receptor 2 (Homo sapiens) (P35968 whole entry): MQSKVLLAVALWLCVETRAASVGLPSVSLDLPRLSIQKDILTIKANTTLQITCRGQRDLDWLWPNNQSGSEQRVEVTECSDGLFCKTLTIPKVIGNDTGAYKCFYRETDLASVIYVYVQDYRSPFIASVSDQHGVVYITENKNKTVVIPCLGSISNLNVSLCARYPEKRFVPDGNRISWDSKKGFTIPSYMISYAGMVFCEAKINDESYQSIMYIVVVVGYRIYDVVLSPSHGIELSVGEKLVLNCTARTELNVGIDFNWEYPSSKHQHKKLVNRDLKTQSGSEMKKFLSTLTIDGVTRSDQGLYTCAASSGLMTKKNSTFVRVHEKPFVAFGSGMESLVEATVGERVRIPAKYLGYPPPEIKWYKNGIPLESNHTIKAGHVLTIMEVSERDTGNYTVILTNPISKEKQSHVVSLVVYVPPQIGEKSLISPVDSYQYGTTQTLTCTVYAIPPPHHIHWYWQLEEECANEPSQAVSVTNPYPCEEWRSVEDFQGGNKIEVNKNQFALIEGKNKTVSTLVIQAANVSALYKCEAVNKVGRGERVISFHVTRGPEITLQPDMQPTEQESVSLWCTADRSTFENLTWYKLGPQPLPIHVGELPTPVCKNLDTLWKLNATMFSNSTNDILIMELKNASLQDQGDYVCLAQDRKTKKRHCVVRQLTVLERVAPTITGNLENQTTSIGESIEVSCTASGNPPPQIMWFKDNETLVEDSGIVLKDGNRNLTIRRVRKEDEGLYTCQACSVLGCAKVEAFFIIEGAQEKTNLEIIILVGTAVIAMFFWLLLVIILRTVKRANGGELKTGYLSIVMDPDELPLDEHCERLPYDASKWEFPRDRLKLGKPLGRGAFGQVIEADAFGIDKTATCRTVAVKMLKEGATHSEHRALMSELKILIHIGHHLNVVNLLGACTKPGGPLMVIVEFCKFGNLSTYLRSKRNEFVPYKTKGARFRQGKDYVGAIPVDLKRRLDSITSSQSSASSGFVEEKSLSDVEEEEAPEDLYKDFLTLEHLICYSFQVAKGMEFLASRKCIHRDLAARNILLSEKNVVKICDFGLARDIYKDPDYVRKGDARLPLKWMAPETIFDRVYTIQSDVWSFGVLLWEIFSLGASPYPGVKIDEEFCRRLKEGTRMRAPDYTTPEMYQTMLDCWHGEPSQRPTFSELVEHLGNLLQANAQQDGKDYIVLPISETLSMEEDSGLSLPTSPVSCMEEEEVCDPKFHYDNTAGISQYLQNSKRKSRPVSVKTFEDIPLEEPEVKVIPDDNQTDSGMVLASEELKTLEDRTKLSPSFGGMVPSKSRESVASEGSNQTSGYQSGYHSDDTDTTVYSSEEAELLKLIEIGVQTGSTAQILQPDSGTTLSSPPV

[30] = target: D(1B) dopamine receptor (Homo sapiens) (UniProt P21918); conditions: Compound concentration 10.0 uM
[31] = target: cGMP-dependent protein kinase 1 (Homo sapiens) (UniProt Q13976); conditions: Compound concentration 1000.0 nM
[32] = target: Coagulation factor X (Homo sapiens) (UniProt P00742); test: Factor Xa (h) Protease assay; conditions: Compound concentration 10.0 uM
[33] = target: Cathepsin S (Homo sapiens) (UniProt P25774); test: Cathepsin S (h) Protease assay; conditions: Compound concentration 10.0 uM
[34] = target: T1, Mucosa-associated lymphoid tissue lymphoma translocation protein 1 (Homo sapiens, UniProt Q9UDY8); test: IL-2 – PMA + anti-CD28 + 50% Rat whole blood; type: tissue-based; conditions: target entry is the homologue from another species
T1 sequence (Q9UDY8 whole entry): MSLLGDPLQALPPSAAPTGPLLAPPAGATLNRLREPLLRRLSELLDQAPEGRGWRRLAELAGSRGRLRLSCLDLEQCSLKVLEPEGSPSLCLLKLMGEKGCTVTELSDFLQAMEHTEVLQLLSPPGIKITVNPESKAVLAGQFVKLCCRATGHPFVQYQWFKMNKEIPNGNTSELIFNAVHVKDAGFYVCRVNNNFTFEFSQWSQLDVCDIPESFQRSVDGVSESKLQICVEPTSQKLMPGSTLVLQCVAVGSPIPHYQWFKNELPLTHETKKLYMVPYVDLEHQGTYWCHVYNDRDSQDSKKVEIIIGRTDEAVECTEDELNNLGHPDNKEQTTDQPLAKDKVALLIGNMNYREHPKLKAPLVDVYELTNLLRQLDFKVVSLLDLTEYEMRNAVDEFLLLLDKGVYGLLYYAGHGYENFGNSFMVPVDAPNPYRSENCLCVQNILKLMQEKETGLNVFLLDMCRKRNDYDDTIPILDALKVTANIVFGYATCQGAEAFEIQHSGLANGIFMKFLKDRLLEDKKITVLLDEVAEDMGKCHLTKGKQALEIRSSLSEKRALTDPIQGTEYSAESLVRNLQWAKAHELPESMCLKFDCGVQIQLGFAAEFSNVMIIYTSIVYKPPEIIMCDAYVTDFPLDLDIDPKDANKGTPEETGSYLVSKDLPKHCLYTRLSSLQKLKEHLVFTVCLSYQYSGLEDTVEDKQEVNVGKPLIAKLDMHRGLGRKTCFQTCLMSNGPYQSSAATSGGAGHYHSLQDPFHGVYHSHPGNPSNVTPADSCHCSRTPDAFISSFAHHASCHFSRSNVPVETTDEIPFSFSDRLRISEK

Structure (SMILES) | residual activity [1] | residual activity [2] | residual activity [3] | residual activity [4] | residual activity [5] | residual activity [6] | residual activity [7] | residual activity [8] | residual activity [9] | residual activity [10] | residual activity [11] | residual activity [12] | residual activity [13] | residual activity [14] | residual activity [15] | residual activity [16] | residual activity [17] | residual activity [18] | inhibition [19] | residual activity [20] | other results
CO[C@@H](C)c1c(Nc2ccc([C@@H](N(C)C(=O)C3CCS(=O)(=O)CC3)C(F)(F)F)cc2)cnc2cc(Cl)nn12 [NVS-MALT1-C] | 90% | 90% | 98% | 90% | 100% | 94% | 94% | 90% | 100% | 94% | 94% | 91% | 87% | 97% | 99% | 88% | 100% | 100% | 56.8% | 100% | residual activity [21]: 89%; residual activity [22]: 100%; residual activity [23]: 89%; residual activity [24]: 100%; residual activity [25]: 61%; residual activity [26]: 75%; residual activity [27]: 100%; residual activity [28]: 99%; residual activity [29]: 95%; inhibition [30]: 4.72%; residual activity [31]: 92%
CO[C@@H](C)c1c(Nc2ccc([C@H](N(C)C(=O)C3CCS(=O)(=O)CC3)C(F)(F)F)cc2)cnc2cc(Cl)nn12 [NVS-MALT1] | 90% | 77% | 100% | 100% | 100% | 91% | 100% | 79% | 100% | 100% | 86% | 99% | 83% | 100% | 100% | 83% | 100% | 100% | 18.8% | 100% | inhibition [32]: -9%; inhibition [33]: 7%; IC50 [34]: 130 nM (active); residual activity [21]: 94%; residual activity [22]: 100%; residual activity [23]: 100%; residual activity [24]: 98%; residual activity [25]: 40%; residual activity [26]: 72%; residual activity [27]: 80%; residual activity [28]: 91%; residual activity [29]: 100%; inhibition [30]: 9.7%; residual activity [31]: 85%
